Assay results from US9777001B2 (priority 2014, dated 2017).
Counter-ions that a name gives are not always drawn.

Legend:
human plasma kallikrein = human plasma kallikrein (Homo sapiens, UniProt P03952); assay: biochemical; conditions: purified human plasma kallikrein, substrate S-2302, sodium phosphate buffer pH 7.5
human Factor XIa = human Factor XIa (Homo sapiens, UniProt P03951); assay: biochemical; conditions: purified human Factor XIa, substrate S-2366, HEPES buffer pH 7.4
human Factor XIa, sequence (P03951 388-625 limits assumed): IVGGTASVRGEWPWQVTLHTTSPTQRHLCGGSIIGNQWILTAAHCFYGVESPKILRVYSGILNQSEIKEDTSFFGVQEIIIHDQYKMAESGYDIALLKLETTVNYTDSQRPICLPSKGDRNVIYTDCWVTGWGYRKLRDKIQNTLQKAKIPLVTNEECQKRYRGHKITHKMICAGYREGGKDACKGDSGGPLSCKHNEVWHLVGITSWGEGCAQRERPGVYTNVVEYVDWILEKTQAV
human Factor XIa, sequence (P03951 19-387 partner limits assumed): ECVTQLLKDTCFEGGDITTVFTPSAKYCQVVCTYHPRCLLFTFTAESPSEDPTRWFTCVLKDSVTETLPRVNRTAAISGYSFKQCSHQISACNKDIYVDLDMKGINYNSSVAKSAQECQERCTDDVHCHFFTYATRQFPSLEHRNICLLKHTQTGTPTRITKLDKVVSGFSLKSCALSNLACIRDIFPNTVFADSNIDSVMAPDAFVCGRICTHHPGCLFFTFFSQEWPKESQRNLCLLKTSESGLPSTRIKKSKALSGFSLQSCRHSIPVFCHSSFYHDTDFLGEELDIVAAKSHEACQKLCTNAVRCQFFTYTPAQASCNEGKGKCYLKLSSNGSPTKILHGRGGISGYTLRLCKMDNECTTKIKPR

human plasma kallikrein, sequence (P03952 391-638 limits assumed): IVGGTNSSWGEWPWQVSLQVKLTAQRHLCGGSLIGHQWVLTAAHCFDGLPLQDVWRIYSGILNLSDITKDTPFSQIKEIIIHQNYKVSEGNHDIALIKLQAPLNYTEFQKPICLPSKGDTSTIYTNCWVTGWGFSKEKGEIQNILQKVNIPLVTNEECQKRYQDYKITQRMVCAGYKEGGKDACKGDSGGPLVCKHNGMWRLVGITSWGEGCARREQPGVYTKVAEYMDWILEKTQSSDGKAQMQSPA
human plasma kallikrein, sequence (P03952 20-390 partner limits assumed): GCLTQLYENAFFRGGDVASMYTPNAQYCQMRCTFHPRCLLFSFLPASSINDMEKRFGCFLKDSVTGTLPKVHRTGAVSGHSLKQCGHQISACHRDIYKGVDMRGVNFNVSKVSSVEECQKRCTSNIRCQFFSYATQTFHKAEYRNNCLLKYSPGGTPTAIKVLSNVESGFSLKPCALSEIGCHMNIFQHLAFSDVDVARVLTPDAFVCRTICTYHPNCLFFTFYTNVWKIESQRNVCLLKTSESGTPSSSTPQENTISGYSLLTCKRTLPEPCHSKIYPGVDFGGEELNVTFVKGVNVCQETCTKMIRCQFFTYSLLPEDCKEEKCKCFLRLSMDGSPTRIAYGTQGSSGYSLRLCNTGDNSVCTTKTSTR

Row | SMILES | Ki (human plasma kallikrein) | Ki (human Factor XIa)
1 | C[C@@H]1CCC[C@H](n2cnc(-c3cc(Cl)ccc3-n3cc(C(F)(F)F)nn3)cc2=O)c2cc(ccn2)-c2ccc(CO)cc2NC1=O [Example 37, (10R,14S)-14-(4-{5-chloro-2-[4-(trifluoromethyl)-1H-1,2,3-triazol-1-yl]phenyl}-6-oxo-1,6-dihydropyrimidin-1-yl)-5-(hydroxymethyl)-10-methyl-8,16-diazatricyclo[13.3.1.0^2,7]nonadeca-1(19),2(7),3,5,15,17-hexaen-9-one trifluoroacetate] | 18 nM | 0.18 nM
2 | C[C@@H]1CCC[C@H](n2cnc(-c3cc(Cl)ccc3-n3cc(C(F)(F)F)nn3)cc2=O)c2cc(ccn2)-c2ccc(C(N)=O)cc2NC1=O [Example 76, (10R,14S)-14-(4-{5-chloro-2-[4-(trifluoromethyl)-1H-1,2,3-triazol-1-yl]phenyl}-6-oxo-1,6-dihydropyrimidin-1-yl)-10-methyl-9-oxo-8,16-diazatricyclo [13.3.1.0^2,7]nonadeca-1(19),2(7),3,5,15,17-hexaene-5-carboxamide] | 36 nM | 0.44 nM
3 | Cc1ccc(-n2cc(C(F)(F)F)nn2)c(-c2cc(=O)n([C@H]3CCC[C@@H](C)C(=O)Nc4ccccc4-c4ccnc3c4)cn2)c1 [Example 81, (10R,14S)-10-methyl-14-(4-{5-methyl-2[4-(trifluoromethyl)-1H-1,2,3-triazol-1-yl]phenyl}-6-oxo-1,6-dihydropyrimidin-1-yl)-8,16-diazatricyclo [13.3.1.0^2,7]nonadeca-1(19),2(7),3,5,15,17-hexaen-9-one] | 66 nM | 0.63 nM
4 | Cc1ccc(-n2cc(C(F)(F)F)nn2)c(-c2cc(=O)n([C@H]3CCC[C@@H](C)C(=O)Nc4cc(C#N)ccc4-c4ccnc3c4)cn2)c1 [Example 82, (10R,14S)-10-methyl-14-(4-{5-methyl-2-[4-(trifluoromethyl)-1H-1,2,3-triazol-1-yl]phenyl}-6-oxo-1,6-dihydropyrimidin-1-yl)-9-oxo-8,16-diazatricyclo [13.3.1.0^2,7]nonadeca-1(19),2(7),3,5,15,17-hexaene-5-carbonitrile] | 176 nM | 1.9 nM
5 | C[C@@H]1CCC[C@H](n2cnc(-c3cc(Cl)ccc3-n3cc(Cl)nn3)cc2=O)c2cc(ccn2)-c2ccc(OC(F)F)cc2NC1=O [Example 93, (10R,14S)-14-{4-[5-chloro-2-(4-chloro-1H-1,2,3-triazol-1-yl)phenyl]-6-oxo-1,6-dihydropyrimidin-1-yl}-5-(difluoromethoxy)-10-methyl-8,16-diazatricyclo [13.3.1.0^2,7]nonadeca-1(19),2(7),3,5,15,17-hexaen-9-one trifluoroacetate] | 4000 nM | 100 nM
6 | C[C@@H]1CCC[C@H](n2cnc(-c3cc(Cl)ccc3-n3cc(C(F)(F)F)nn3)cc2=O)c2cc(ccn2)-c2c(Cl)cccc2NC1=O [Example 105, (10R,14S)-3-chloro-14-(4-{5-chloro-2-[4-(trifluoromethyl)-1H-1,2,3triazol-1-yl]phenyl}-6-oxo-1,6-dihydropyrimidin-1-yl)-10-methyl-8,16-diazatricyclo[13.3.1.0^2,7]nonadeca-1(19),2(7),3,5,15,17-hexaen-9-one] |  | 0.41 nM
7 | COc1ccc(-n2cc(C(F)(F)F)nn2)c(-c2cc(=O)n([C@H]3CCC[C@@H](C)C(=O)Nc4ccc(F)cc4-c4cncc3c4)cn2)c1 [Example 107, (10R,14S)-4-Fluoro-14-(4-{5-methoxy-2-[4-(trifluoromethyl)-1H-1,2,3-triazol-1-yl]phenyl}-6-oxo-1,6-dihydropyrimidin-1-yl)-10-methyl-8,17-diazatricyclo[13.3.1.0^2,7]nonadeca-1(19),2(7),3,5,15,17-hexaen-9-one] | 1400 nM | 142 nM
8 | C[C@@H]1CCC[C@H](n2cnc(-c3cc(Cl)ccc3-c3csnn3)cc2=O)c2cc(ccn2)-c2cc(F)ccc2NC1=O [Example 117, (10R,14S)-14-{4-[5-chloro-2-(1,2,3-thiadiazol-4-yl)phenyl]-6-oxo-1,6-dihydropyrimidin-1-yl}-4-fluoro-10-methyl-8,16-diazatricyclo[13.3.1.0^2,7]nonadeca-1(19),2(7),3,5,15,17-hexaen-9-one] |  | 2.7 nM
9 | C[C@@H]1CCC[C@H](n2cnc(-c3cc(Cl)cc4cnn(C)c34)cc2=O)c2cc(ccn2)-c2ccccc2NC1=O [Example 119, (10R,14S)-14-[4-(5-chloro-1-methyl-1H-indazol-7-yl)-6-oxo-1,6-dihydropyrimidin-1-yl]-10-methyl-8,16-diazatricyclo[13.3.1.0^2,7]nonadeca-1(19),2(7),3,5,15,17-hexaen-9-one] |  | 100 nM
10 | C[C@@H]1CCC[C@H](n2cnc(-c3c(-n4cc(C(F)F)nn4)ccc(Cl)c3F)cc2=O)c2cc(ccn2)-c2cc(F)ccc2NC1=O [Example 134, (10R,14S)-14-(4-{3-chloro-6-[4-(difluoromethyl)-1H-1,2,3-triazol-1-yl]-2-fluorophenyl}-6-oxo-1,6-dihydropyrimidin-1-yl)-4-fluoro-10-methyl-8,16-diazatricyclo [13.3.1.0^2,7]nonadeca-1(19),2(7),3,5,15,17-hexaen-9-one trifluoroacetate] |  | 0.16 nM
11 | C[C@@H]1CCC[C@H](n2cnc(-c3cc(Cl)ccc3-n3cc(Cl)nn3)cc2=O)c2cc(ccn2)-c2cc(F)ccc2NC1=O [Example 140, (10R,14S)-14-{4-[5-chloro-2-(4-chloro-1H-1,2,3-triazol-1-yl)phenyl]-6-oxo-1,6-dihydropyrimidin-1-yl}-4-fluoro-10-methyl-8,16-diazatricyclo[13.3.1.0^2,7]nonadeca-1(19),2(7),3,5,15,17-hexaen-9-one trifluoroacetate] |  | 0.1 nM
12 | C[C@@H]1CCC[C@H](n2cnc(-c3c(C(F)(F)F)ccc(Cl)c3F)cc2=O)c2cc(ccn2)-c2cc(F)ccc2NC1=O [Example 143, (10R,14S)-14-{4-[3-chloro-2-fluoro-6-(trifluoromethyl)phenyl]-6-oxo-1,6-dihydropyrimidin-1-yl}-4-fluoro-10-methyl-8,16-diazatricyclo[13.3.1.0^2,7]nonadeca-1(19),2(7),3,5,15,17-hexaen-9-one trifluoroacetate] |  | 17 nM
13 | C[C@@H]1CCC[C@H](n2cnc(-c3cc(Cl)ccc3-n3cc(C#N)nn3)cc2=O)c2cc(ccn2)-c2cc(F)ccc2NC1=O [Example 148, 1-(4-chloro-2-{1-[(10R,14S)-4-fluoro-10-methyl-9-oxo-8,16-diazatricyclo [13.3.1.0^2,7]nonadeca-1(19),2(7),3,5,15,17-hexaen-14-yl]-6-oxo-1,6-dihydropyrimidin-4-yl}phenyl)-1H-1,2,3-triazole-4-carbonitrile trifluoroacetate] |  | 0.1 nM
14 | COc1ccc(Cl)cc1-c1cc(=O)n([C@H]2CCC[C@@H](C)C(=O)Nc3ccc(F)cc3-c3ccnc2c3)cn1 [Example 150, (10R,14S)-14[4-(5-chloro-2-methoxyphenyl)-6-oxo-1,6-dihydropyrimidin-1-yl]-4-fluoro-10-methyl-8,16-diazatricyclo[13.3.1.0^2,7]nonadeca-1(19),2(7),3,5,15,17-hexaen-9-one trifluoroacetate] |  | 310 nM
